Experimental data from article PMC6522510 (Nature Communications, 2019).
“And” between values parts separate entries of the source, which are not always exact repeats. Identical values can stand only once. Like-named read-outs stand apart in the source and are kept apart here.

Columns and labels:
[1] = tested on: MOLM-13; experiment: Secondary dose-response HTS, Cell Titer Glo; format: cell-based, human; conditions: for EC50: Homo sapiens, read-out: average effective concentration, MOLM-13
[2] = tested on: MV4-11; experiment: Secondary dose-response HTS, Cell Titer Glo; format: cell-based, human; conditions: for EC50: Homo sapiens, read-out: average effective concentration, MV4-11
[3] = tested on: CMS; experiment: Secondary dose-response HTS, Cell Titer Glo; format: cell-based, human; conditions: Homo sapiens, HTS, read-out: average effective concentration, CMS
[4] = tested on: CMK; experiment: cells; design: species or system AML cell lines (8); conditions: Homo sapiens, 72 h, read-out: CMK
[5] = tested on: ML2; experiment: Secondary dose-response HTS, Cell Titer Glo; format: cell-based, human; conditions: Homo sapiens
[6] = tested on: MV4-11; experiment: cells; design: species or system AML cell lines (8); conditions: Homo sapiens, MV4-11, 72 h, read-out: MV4-11
[7] = tested on: CHRF288-11; experiment: Secondary dose-response HTS, Cell Titer Glo; format: cell-based, human; conditions: Homo sapiens, HTS, read-out: average effective concentration, CHRF288-11
[8] = tested on: M07e; experiment: Secondary dose-response HTS, Cell Titer Glo; format: cell-based, human; conditions: Homo sapiens, M-07e, read-out: average effective concentration, M07e
[9] = tested on: U937; experiment: Secondary dose-response HTS, Cell Titer Glo; format: cell-based, human; conditions: Homo sapiens
[10] = tested on: CMK; experiment: Secondary dose-response HTS, Cell Titer Glo; format: cell-based, human; conditions: CMK; for EC50: Homo sapiens, read-out: average effective concentration, CMK
[11] = tested on: CMK; experiment: cells; design: species or system AML cell lines (8); Secondary HTS, 10-point dose-response in triplicate, Cell Titer Glo viability, four-parameter fit EC50; conditions: Homo sapiens, CMK, 72 h, read-out: CMK
[12] = tested on: U937; experiment: cells; design: species or system AML cell lines (8); Secondary HTS, 10-point dose-response in triplicate, Cell Titer Glo viability, four-parameter fit EC50; conditions: Homo sapiens, read-out: U937
[13] = tested on: MV4-11; experiment: cells; design: species or system AML cell lines (8); Secondary HTS, 10-point dose-response in triplicate, Cell Titer Glo viability, four-parameter fit EC50; conditions: Homo sapiens, MV4-11, 72 h, read-out: MV4-11
[14] = tested on: MOLM-13; experiment: cells; design: species or system AML cell lines (8); Secondary HTS, 10-point dose-response in triplicate, Cell Titer Glo viability, four-parameter fit EC50; conditions: Homo sapiens, MOLM-13, 72 h, read-out: MOLM-13
[15] = tested on: CHRF288-11; experiment: cells; design: species or system AML cell lines (8); Secondary HTS, 10-point dose-response in triplicate, Cell Titer Glo viability, four-parameter fit EC50; conditions: 72 h, read-out: CHRF288-11
[16] = tested on: ML-2; experiment: cells; design: species or system AML cell lines (8); Secondary HTS, 10-point dose-response in triplicate, Cell Titer Glo viability, four-parameter fit EC50; conditions: Homo sapiens, ML-2, 72 h, read-out: ML-2
[17] = tested on: MOLM-13; experiment: cells; design: species or system AML cell lines (8); Secondary HTS, 10-point dose-response in triplicate, Cell Titer Glo viability, four-parameter fit EC50; conditions: Homo sapiens, read-out: MOLM-13
[18] = tested on: CMS; experiment: cells; design: species or system AML cell lines (8); conditions: 72 h, read-out: CMS
[19] = tested on: M07e; experiment: cells; design: species or system AML cell lines (8); conditions: M-07e, 72 h, read-out: M07e
[20] = tested on: U937; experiment: cells; design: species or system AML cell lines (8); conditions: Homo sapiens, U-937, 72 h, read-out: U937
[21] = tested on: MV4-11; design: species or system AML cell lines (8); Primary HTS, single concentration about 10 uM, Cell Titer Glo viability; log10 luminescence, per cent inhibition relative to cycloheximide control; conditions: 72 h, 10 µM, inhibitor
[22] = tested on: CHRF288-11; design: species or system AML cell lines (8); Primary HTS, single concentration about 10 uM, Cell Titer Glo viability; log10 luminescence, per cent inhibition relative to cycloheximide control; conditions: 72 h, 10 µM, inhibitor
[23] = tested on: MOLM-13; design: species or system AML cell lines (8); Primary HTS, single concentration about 10 uM, Cell Titer Glo viability; log10 luminescence, per cent inhibition relative to cycloheximide control; conditions: 72 h, 10 µM, inhibitor
[24] = tested on: U937; design: species or system AML cell lines (8); Primary HTS, single concentration about 10 uM, Cell Titer Glo viability; log10 luminescence, per cent inhibition relative to cycloheximide control; conditions: 72 h, 10 µM, inhibitor
[25] = tested on: M07e; design: species or system AML cell lines (8); Primary HTS, single concentration about 10 uM, Cell Titer Glo viability; log10 luminescence, per cent inhibition relative to cycloheximide control; conditions: 72 h, 10 µM, inhibitor
[26] = tested on: CMS; design: species or system AML cell lines (8); Primary HTS, single concentration about 10 uM, Cell Titer Glo viability; log10 luminescence, per cent inhibition relative to cycloheximide control; conditions: 72 h, 10 µM, inhibitor
[27] = tested on: CMK; design: species or system AML cell lines (8); Primary HTS, single concentration about 10 uM, Cell Titer Glo viability; log10 luminescence, per cent inhibition relative to cycloheximide control; conditions: 72 h, 10 µM, inhibitor
[28] = tested on: ML-2; design: species or system AML cell lines (8); Primary HTS, single concentration about 10 uM, Cell Titer Glo viability; log10 luminescence, per cent inhibition relative to cycloheximide control
[29] = tested on: MLLr primary AML blast samples; experiment: Ex vivo drug treatment of primary AML blasts on mesenchymal stromal cells; format: cell-based; conditions: Homo sapiens; primary blasts on MSC, 96 h, range over patient samples
[30] = tested on: CHRF288-11; experiment: cells; design: species or system AML cell lines (8); conditions: 72 h, read-out: CHRF288-11
[31] = secondary high-throughput screen, MOLM-13
[32] = secondary high-throughput screen, MV4-11
[33] = secondary high-throughput screen, CMS
[34] = secondary high-throughput screen, ML-2, read-out: average effective concentration, ML-2
[35] = secondary high-throughput screen, CHRF288-11
[36] = secondary high-throughput screen, […]
[37] = U-937, secondary high-throughput screen, U937, read-out: average effective concentration, U937
[38] = secondary high-throughput screen
[39] = secondary high-throughput screen, M07e

Row | SMILES | EC50 [1, 31] [nM] | EC50 [3, 33] [nM] | EC50 [5, 34] [nM] | EC50 [6] [nM] | EC50 [7, 35] [nM] | EC50 [9, 37] [nM] | EC50 [8, 39] [nM] | EC50 [10, 38] [nM] | EC50 [2, 32] [nM] | also measured
1 | CCC(=O)CCCCC[C@@H]1NC(=O)[C@H]2CCCCN2C(=O)[C@H]([C@@H](C)CC)NC(=O)[C@H](Cc2cn(OC)c3ccccc23)NC1=O [APICIDIN] | 130 | 220 | 180 | > 10000 | 410 | 250 |  |  |  | average effective concentration, MV4-11 [2, 32]: Inactive; EC50 [4]: > 10000 nM; EC50 [8, 36]: 140 nM; average effective concentration, CMK [10, 38]: Inactive
2 | CCn1c(C(=O)N(C2CC2)C2CC2)cc2c3c(ncn3C)c(Nc3cc(C)n(C)n3)nc21 [BMS-911543] |  | 5000 |  |  |  |  | 8700 |  |  | EC50 [11]: > 10000 nM; EC50 ([12]; U-937, 72 h): > 10000 nM; EC50 [13]: > 10000 nM; EC50 [14]: > 10000 nM; EC50 [15]: > 10000 nM; EC50 [16]: > 10000 nM
3 | CC1=C(O)C(=O)C=C2C1=CC=C1[C@@]2(C)CC[C@@]2(C)[C@@H]3C[C@](C)(C(=O)O)CC[C@]3(C)CC[C@]12C [CELASTROL] |  | 64 | 67 | > 10000 | 75 | 79 |  | 69 |  | average effective concentration, MOLM-13 [1, 31]: Inactive; average effective concentration, MV4-11 [2, 32]: Inactive; EC50 [8, 36]: 940 nM; EC50 ([17]; 72 h cell viability): > 10000 nM
4 | CN1C(=O)[C@@]23C[C@]4([C@]56C[C@@]78SS[C@@](CO)(C(=O)N7[C@H]5Nc5ccccc56)N(C)C8=O)c5ccccc5N[C@@H]4N2C(=O)[C@]1(CO)SS3 [CHAETOCIN] | 62 | 10 | 26 |  | 12 |  |  |  | 29 | EC50 ([12]; U-937, 72 h cell viability): 7.7 nM; EC50 [4]: > 10000 nM; EC50 [8, 36]: 12 nM; average effective concentration, CMK [10, 38]: Inactive
5 | Nc1nc(Cl)nc2c1ncn2[C@H]1C[C@H](O)[C@@H](CO)O1 [CLADRIBINE] | 35 |  | 190 |  | 170 | 87 | 14 | 30 | 24 | EC50 [18]: > 10000 nM
6 | NC(=O)c1cccc(N)c1 [Compound 3-AMINOBENZAMIDE] | 3200 |  | 3200 | > 10000 | 3000 |  |  |  |  | EC50 [19]: > 10000 nM; EC50 [4]: > 10000 nM; EC50 [20]: > 10000 nM; EC50 [18]: > 10000 nM
7 | CN1C(=O)[C@]23CC4=CC=C[C@H](O)[C@H]4N2C(=O)[C@@]1(CO)SS3 [GLIOTOXIN] |  | 26 | 25 | > 10000 | 24 | 12 |  | 16 |  | average effective concentration, MOLM-13 [1, 31]: Inactive; MV4-11 %inh [21]: 84.27% and 75%; average effective concentration, MV4-11 [2, 32]: Inactive; CHRF288-11 %inh [22]: 141.2% and 155.7%; MOLM-13 %inh [23]: 95.14% and 103.3%; U937 %inh [24]: 86.1% and 87.37%; EC50 [8, 36]: 130 nM; M07e %inh [25]: 143.7% and 136.2%; EC50 ([17]; 72 h cell viability): > 10000 nM; CMS %inh [26]: 108.9% and 102.6%; CMK %inh [27]: 129.2% and 125%; ML-2 %inh ([28]; 72 h, 10 µM, inhibitor): 66.31%; ML-2 %inh ([28]; 72 h, 10 µM; inhibitor): 62.11%
8 | C=C1C(=O)O[C@@H]2C[C@@H](C)[C@@H]3C=CC(=O)[C@@]3(C)[C@@H](O)[C@H]12 [HELENALIN] |  |  |  | > 10000 |  |  |  |  |  | average effective concentration, MOLM-13 [1]: Inactive; average effective concentration, MV4-11 [2]: Inactive; EC50 [3]: 210 nM; EC50 ([5]; ML-2, read-out: average effective concentration, ML-2): 130 nM; EC50 [7]: 170 nM; EC50 [8]: 340 nM; EC50 ([17]; 72 h cell viability): > 10000 nM; EC50 ([9]; U-937, read-out: average effective concentration, U937): 170 nM; EC50 [10]: 190 nM
9 | C=CC(=O)N1CCC[C@@H](n2nc(-c3ccc(Oc4ccccc4)cc3)c3c(N)ncnc32)C1 [Ibrutinib, reference compound] | 6700 | > 10000 |  |  |  | 10000 |  | > 10000 | 10000 | IC50 [29]: > 20000 nM
10 | C[C@]12O[C@H](C[C@]1(O)CO)n1c3ccccc3c3c4c(c5c6ccccc6n2c5c31)CNC4=O [LESTAURTINIB] |  | 7.55 | 320 |  | 110 | 41 | 1 | 3.3 | 3200 | EC50 ([17]; 72 h cell viability): > 10000 nM
11 | O=c1cc(N2CCOCC2)oc2c(-c3ccccc3)cccc12 [LY-294002] |  | > 10000 |  |  |  |  | > 10000 |  |  | EC50 [11]: > 10000 nM; EC50 ([12]; U-937, 72 h): > 10000 nM; EC50 [13]: > 10000 nM; EC50 [14]: > 10000 nM; EC50 [15]: > 10000 nM; EC50 [16]: > 10000 nM
12 | C[C@@H]1C[C@H]2O[C@@H]2/C=C\C=C\C(=O)Cc2c(Cl)c(O)cc(O)c2C(=O)O1 [RADICICOL] | 27 | 110 | 61 |  | 92 | 15 |  | 66 | 21 | EC50 [19]: > 10000 nM
13 | CC(C)[C@]12O[C@H]1[C@@H]1O[C@]13[C@]1(O[C@H]1C[C@H]1C4=C(CC[C@@]13C)C(=O)OC4)[C@@H]2O [TRIPTOLIDE] | 120 | 70 | 61 |  |  | 100 | 10 | 10 | 230 | EC50 [30]: > 10000 nM
14 | COC(=O)[C@]1(C)CC[C@]2(C)CC[C@]3(C)C4=CC=C5C(=CC(=O)C(O)=C5C)[C@]4(C)CC[C@@]3(C)[C@@H]2C1 [[…]] |  |  |  | > 10000 |  |  |  |  |  | EC50 ([17]; MOLM-13, 72 h): > 10000 nM
